Results: PubChem BioAssay (NCI)
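How tested: cells in 96-well plates exposed to compound for 48 hours at five concentrations. TGI: total growth inhibition.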

What was measured:
Experiment in all cases: inhibition of tumour cell growth, NCI panel, 48 h
OVCAR-8 ovarian = test system: OVCAR-8 ovarian
SR leukemia = test system: SR leukemia
NCI-H23 lung = test system: NCI-H23 lung
SNB-19 CNS = test system: SNB-19 CNS
A498 renal = test system: A498 renal
IGROV1 ovarian = test system: IGROV1 ovarian
K-562 leukemia = test system: K-562 leukemia
M14 melanoma = test system: M14 melanoma
RXF 393 renal = test system: RXF 393 renal
HCT-116 colon = test system: HCT-116 colon

With `CCOC(=O)c1ccc(-c2cccs2)[nH]1` the TGI (OVCAR-8 ovarian) was > 100 µM, the TGI (SR leukemia) was > 100 µM and the TGI (NCI-H23 lung) was > 100 µM. For the same compound, the TGI (SNB-19 CNS) was > 100 µM, the TGI (A498 renal) was > 100 µM and the TGI (IGROV1 ovarian) was > 100 µM. For the same compound, the TGI (K-562 leukemia) was > 100 µM, the TGI (M14 melanoma) was > 100 µM and the TGI (RXF 393 renal) was > 100 µM. For the same compound, the TGI (HCT-116 colon) was > 100 µM.
For `CCOC(=O)c1c(SCCN(CC)CC)n(-c2ccccc2)c(=S)n(-c2ccccc2)c1=O`, the TGI (OVCAR-8 ovarian) was 7.19 µM, the TGI (SR leukemia) was 2.6 µM and the TGI (NCI-H23 lung) was 44.6 µM. It also gave a TGI (SNB-19 CNS) of 31.9 µM, a TGI (A498 renal) of 29 µM and a TGI (IGROV1 ovarian) of 13.2 µM. For the same compound, the TGI (K-562 leukemia) was 4.32 µM, the TGI (M14 melanoma) was 3.13 µM and the TGI (RXF 393 renal) was 3.28 µM. The TGI (HCT-116 colon) was 8.13 µM.
With `CCCCN1/C(=N/Nc2n[nH]c(=O)c3ccccc23)SCC1c1ccc(Cl)cc1` (stereo not given) the TGI (OVCAR-8 ovarian) was > 100 µM, the TGI (SR leukemia) was 24.6 µM and the TGI (NCI-H23 lung) was 14.7 µM. The TGI (SNB-19 CNS) was 42 µM, the TGI (A498 renal) was 66.2 µM and the TGI (IGROV1 ovarian) was 41.1 µM. The TGI (K-562 leukemia) was > 100 µM, the TGI (M14 melanoma) was 19.5 µM and the TGI (RXF 393 renal) was 63.1 µM. The TGI (HCT-116 colon) was 44.8 µM.
In the case of `CN1OC(CO)CC12C1CC3CC(C1)CC2C3` (stereo not given), the TGI (OVCAR-8 ovarian) is reported as > 100 µM, the TGI (SR leukemia) is reported as > 100 µM and the TGI (NCI-H23 lung) is reported as > 100 µM. The TGI (SNB-19 CNS) was > 100 µM, the TGI (A498 renal) was > 100 µM and the TGI (IGROV1 ovarian) was > 100 µM. For the same compound, the TGI (K-562 leukemia) was > 100 µM, the TGI (M14 melanoma) was > 100 µM and the TGI (RXF 393 renal) was > 100 µM. For the same compound, the TGI (HCT-116 colon) was > 100 µM.
`CCOP(=O)(OCC)/C(C#N)=C(\C)c1ccco1` was tested, and the TGI (OVCAR-8 ovarian) was > 10 µM, the TGI (SR leukemia) was > 10 µM and the TGI (NCI-H23 lung) was > 10 µM. For the same compound, the TGI (SNB-19 CNS) was > 10 µM, the TGI (A498 renal) was > 10 µM and the TGI (IGROV1 ovarian) was > 10 µM. For the same compound, the TGI (K-562 leukemia) was > 10 µM, the TGI (M14 melanoma) was > 10 µM and the TGI (RXF 393 renal) was > 10 µM. For the same compound, the TGI (HCT-116 colon) was > 10 µM.
With `CCN(CC)CCCNc1nnc(C)c2[nH]c3ccccc3c12` the TGI (OVCAR-8 ovarian) was 42.3 µM, the TGI (SR leukemia) was 32.6 µM and the TGI (NCI-H23 lung) was 38.8 µM. For the same compound, the TGI (SNB-19 CNS) was > 100 µM, the TGI (A498 renal) was 43.1 µM and the TGI (IGROV1 ovarian) was 44.3 µM. The TGI (K-562 leukemia) was > 100 µM, the TGI (M14 melanoma) was 32.4 µM and the TGI (RXF 393 renal) was 38.8 µM. It also gave a TGI (HCT-116 colon) of 69.4 µM.
Compound `CC(=O)OC1C(C)OC(OC2C[C@](O)(C(C)=O)Cc3c(O)c4c(c(O)c32)C(=O)c2ccccc2C4=O)C(F)C1OC(C)=O` (stereo not given in full) has a TGI (OVCAR-8 ovarian) of 10.7 µM, a TGI (SR leukemia) of 0.887 µM and a TGI (NCI-H23 lung) of 1.81 µM. For the same compound, the TGI (SNB-19 CNS) was 4.99 µM, the TGI (A498 renal) was 2.87 µM and the TGI (IGROV1 ovarian) was 9.34 µM. For the same compound, the TGI (K-562 leukemia) was > 100 µM, the TGI (M14 melanoma) was 10.7 µM and the TGI (RXF 393 renal) was 18.9 µM. It also gave a TGI (HCT-116 colon) of 2.84 µM.
In the case of `O=C(C[N+]1(c2ccccc2)CCOCC1)c1ccccc1`, the TGI (OVCAR-8 ovarian) is reported as > 100 µM, the TGI (SR leukemia) is reported as > 100 µM and the TGI (NCI-H23 lung) is reported as > 100 µM. The TGI (SNB-19 CNS) was > 100 µM, the TGI (A498 renal) was > 100 µM and the TGI (IGROV1 ovarian) was > 100 µM. For the same compound, the TGI (K-562 leukemia) was > 100 µM, the TGI (M14 melanoma) was > 100 µM and the TGI (RXF 393 renal) was > 100 µM. The TGI (HCT-116 colon) was > 100 µM.
For `CC(=O)Oc1cc(OC(C)=O)c2c(c1C)CC[C@@H]1[C@@H]2CC[C@]2(C)[C@@H](OC(C)=O)CC[C@@H]12`, the TGI (OVCAR-8 ovarian) was 42.4 µM, the TGI (SR leukemia) was 73.6 µM and the TGI (NCI-H23 lung) was 38.8 µM. The TGI (SNB-19 CNS) was 33.3 µM, the TGI (A498 renal) was 34.8 µM and the TGI (IGROV1 ovarian) was 34.4 µM. For the same compound, the TGI (K-562 leukemia) was 89.2 µM, the TGI (M14 melanoma) was 34.9 µM and the TGI (RXF 393 renal) was 27.7 µM. The TGI (HCT-116 colon) was 29.2 µM.
With `NS(=O)(=O)C1CCCCC1C(=O)NNC(=O)C(=O)Nc1nc(=S)[nH][nH]1` (stereo not given) the TGI (OVCAR-8 ovarian) was > 100 µM, the TGI (SR leukemia) was > 100 µM and the TGI (NCI-H23 lung) was > 100 µM. The TGI (SNB-19 CNS) was > 100 µM, the TGI (A498 renal) was > 100 µM and the TGI (IGROV1 ovarian) was > 100 µM. The TGI (K-562 leukemia) was > 100 µM, the TGI (M14 melanoma) was > 100 µM and the TGI (RXF 393 renal) was > 100 µM. For the same compound, the TGI (HCT-116 colon) was > 100 µM.
With `CCCCCCCCCCCCCCCC(=O)OCC(COP(=O)(O)OCCNC(=O)CCSSc1ccccn1)OC(=O)CCCCCCCCCCCCCCC` (stereo not given) the TGI (OVCAR-8 ovarian) was > 100 µM, the TGI (SR leukemia) was > 100 µM and the TGI (NCI-H23 lung) was > 100 µM. For the same compound, the TGI (SNB-19 CNS) was > 100 µM, the TGI (A498 renal) was > 100 µM and the TGI (IGROV1 ovarian) was > 100 µM. The TGI (K-562 leukemia) was > 100 µM, the TGI (M14 melanoma) was > 100 µM and the TGI (RXF 393 renal) was > 100 µM. For the same compound, the TGI (HCT-116 colon) was > 100 µM.
For `Nc1nc2c(ccc3ccccc32)[nH]1`, the TGI (OVCAR-8 ovarian) was > 10 µM, the TGI (SR leukemia) was > 10 µM and the TGI (NCI-H23 lung) was > 10 µM. The TGI (SNB-19 CNS) was > 10 µM, the TGI (A498 renal) was > 10 µM and the TGI (IGROV1 ovarian) was > 10 µM. For the same compound, the TGI (K-562 leukemia) was > 10 µM, the TGI (M14 melanoma) was > 10 µM and the TGI (RXF 393 renal) was > 10 µM. The TGI (HCT-116 colon) was > 10 µM.
In the case of `CCc1n[nH]c(=O)n1-c1ccncc1`, the TGI (OVCAR-8 ovarian) is reported as > 100 µM, the TGI (SR leukemia) is reported as > 100 µM and the TGI (NCI-H23 lung) is reported as > 100 µM. For the same compound, the TGI (SNB-19 CNS) was > 100 µM, the TGI (A498 renal) was > 100 µM and the TGI (IGROV1 ovarian) was > 100 µM. The TGI (K-562 leukemia) was > 100 µM, the TGI (M14 melanoma) was > 100 µM and the TGI (RXF 393 renal) was > 100 µM. For the same compound, the TGI (HCT-116 colon) was > 100 µM.
In the case of `C(/Cc1ccc2c(c1)OCO2)=N\NC1=NCCCCN1`, the TGI (OVCAR-8 ovarian) is reported as > 100 µM, the TGI (SR leukemia) is reported as > 100 µM and the TGI (NCI-H23 lung) is reported as > 100 µM. For the same compound, the TGI (SNB-19 CNS) was > 100 µM, the TGI (A498 renal) was 91.4 µM and the TGI (IGROV1 ovarian) was > 100 µM. The TGI (K-562 leukemia) was > 100 µM, the TGI (M14 melanoma) was 35.1 µM and the TGI (RXF 393 renal) was > 100 µM. For the same compound, the TGI (HCT-116 colon) was > 100 µM.
`CNC(=O)N(C)C(=O)c1ccccc1C(=O)N(C)C(=O)NC` was tested, and the TGI (OVCAR-8 ovarian) was > 10 µM, the TGI (SR leukemia) was > 10 µM and the TGI (NCI-H23 lung) was > 10 µM. The TGI (SNB-19 CNS) was > 10 µM, the TGI (A498 renal) was > 10 µM and the TGI (IGROV1 ovarian) was > 10 µM. The TGI (K-562 leukemia) was > 10 µM, the TGI (M14 melanoma) was > 10 µM and the TGI (RXF 393 renal) was > 10 µM. The TGI (HCT-116 colon) was > 10 µM.
`Nc1c(/C=C/c2cc3cc(C4=NCCN4)ccc3o2)[nH]c2cc(C3=NCCN3)ccc12` was tested, and the TGI (OVCAR-8 ovarian) was > 100 µM, the TGI (SR leukemia) was > 100 µM and the TGI (NCI-H23 lung) was > 100 µM. The TGI (SNB-19 CNS) was > 100 µM, the TGI (A498 renal) was > 100 µM and the TGI (IGROV1 ovarian) was > 100 µM. The TGI (K-562 leukemia) was > 100 µM, the TGI (M14 melanoma) was > 100 µM and the TGI (RXF 393 renal) was > 100 µM. The TGI (HCT-116 colon) was > 100 µM.
